Results taken from article PMC9103705, “Effects of Drugs Formerly Proposed for COVID-19 Treatment on Connexin43 Hemichannels” (International Journal of Molecular Sciences, 2022).

How the values were obtained:
Cx43 hemichannels = target: T1, Cx43 hemichannels (Homo sapiens, UniProt P17302); test: Cx43 hemichannel activity assay (extracellular ATP release, bioluminescence); assay type: cell-based; conditions: HEK-hCx43 cells; for extracellular ATP release (Cx43 hemichannel activity) compared to DF control: 30 min exposure in DF buffer; for extracellular ATP release at highest applied concentration: lopinavir 190 µM, remdesivir 500 µM (CC10 x10); for extracellular ATP levels at lower concentrations: CC10/2: 8.5 µM azithromycin, 7 µM chloroquine, 6.25 µM hydroxychloroquine
T1 construct: expressed in transfected cells; host or cells: HEK293 (HEK-hCx43, transduced)

DUBCA-hCx43 cells = test: MTT cell viability assay for CC10 determination, 24 h drug exposure; conditions: 24 h exposure; for CC10 (concentration inducing 10% cell death): extrapolated from concentration-response curves
Cx43 mRNA expression = test: RT-qPCR analysis of Cx43 mRNA expression; assay type: cell-based, human; conditions: DUBCA-hCx43 cells, 24 h; for Cx43 mRNA expression: CC10, CC10/2 and CC10/10 (all tested concentrations)
[1] = retrieved from the literature; cited from earlier work
[2] = system: gap junctional communication; conditions: cited from earlier work
Cx43 protein expression = conditions: cited from earlier work

T1 sequence (P17302 whole entry): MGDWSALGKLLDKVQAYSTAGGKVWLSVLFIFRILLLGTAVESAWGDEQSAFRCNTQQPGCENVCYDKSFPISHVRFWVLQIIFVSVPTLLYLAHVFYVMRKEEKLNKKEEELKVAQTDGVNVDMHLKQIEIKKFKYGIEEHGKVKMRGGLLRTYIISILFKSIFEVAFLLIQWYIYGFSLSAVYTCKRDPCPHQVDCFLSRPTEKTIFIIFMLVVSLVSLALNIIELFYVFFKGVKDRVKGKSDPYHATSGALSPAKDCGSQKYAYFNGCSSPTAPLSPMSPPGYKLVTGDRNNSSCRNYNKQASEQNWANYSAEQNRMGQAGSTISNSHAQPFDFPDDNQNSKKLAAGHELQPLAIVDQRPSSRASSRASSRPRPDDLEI

Compound | extracellular ATP release (Cx43 hemichannel activity) compared to DF control (Cx43 hemichannels) | CC10 (concentration inducing 10% cell death) (DUBCA-hCx43 cells) [µM] | Cx43 mRNA expression (Cx43 mRNA expression) | extracellular ATP release at highest applied concentration (Cx43 hemichannels; 30 min) | Cmax (total peak plasma concentration at therapeutic dose) [1] | Cx43 mRNA expression at 5 µM (Cx43 mRNA expression; effect only seen at 5 µM) | cytotoxic effect on the cells (DUBCA-hCx43 cells) | extracellular ATP levels at lower concentrations (Cx43 hemichannels; 30 min) | gap junctional communication [2] | concentration dependence of ATP release (Cx43 hemichannels; 30 min, stepwise increase in ATP at lower concentrations) | Cx43 protein expression in cardiomyocytes (Cx43 protein expression)
CC1(C)[C@@H](OC(=O)CCC(=O)O)CC[C@]2(C)[C@H]3C(=O)C=C4[C@@H]5C[C@@](C)(C(=O)O)CC[C@]5(C)CC[C@@]4(C)[C@]3(C)CC[C@@H]12 [Cbx, carbenoxolone] | lower ATP levels |  |  |  |  |  |  |  |  |  | 
Cc1cccc(C)c1OCC(=O)N[C@@H](Cc1ccccc1)[C@@H](O)C[C@H](Cc1ccccc1)NC(=O)[C@H](C(C)C)N1CCCNC1=O [Lopinavir] |  | 19 | no effects | released a significantly higher amount of ATP |  |  |  |  |  |  | 
CCC(CC)COC(=O)[C@H](C)N[P@](=O)(OC[C@H]1O[C@@](C#N)(c2ccc3c(N)ncnn23)[C@H](O)[C@@H]1O)Oc1ccccc1 [Remdesivir] |  | 50 |  | released a significantly higher amount of ATP | 9.03 [29] µM | decrease in Cx43 mRNA expression |  |  |  |  | 
NC(=O)c1nc(F)c[nH]c1=O [Favipiravir] | not significantly different from the DF control | >400 | no effects |  | 53.4 [26] µM |  | did not show any cytotoxic effect |  |  |  | 
CC[C@H]1OC(=O)[C@H](C)[C@@H](O[C@H]2C[C@@](C)(OC)[C@@H](O)[C@H](C)O2)[C@H](C)[C@@H](O[C@@H]2O[C@H](C)C[C@H](N(C)C)[C@H]2O)[C@](C)(O)C[C@@H](C)CN(C)[C@H](C)[C@@H](O)[C@]1(C)O [Azithromycin (dihydrate), Azithromycin] |  | 17 | no effects |  | 0.52 [23] µM |  |  | increase extracellular ATP levels |  |  | 
C[C@@H]1C[C@H]2[C@@H]3CCC4=CC(=O)C=C[C@]4(C)[C@@]3(F)[C@@H](O)C[C@]2(C)[C@@]1(O)C(=O)CO [Dexamethasone] | not significantly different from the DF control | >200 | no effects |  | 0.63 [25] µM |  | did not show any cytotoxic effect |  | reduce gap junctional communication | might have a concentration-dependent effect on ATP release | 
CCN(CC)CCCC(C)Nc1ccnc2cc(Cl)ccc12 (stereo not drawn) [Chloroquine (diphosphate), Chloroquine] |  |  | no effects |  | 0.81 [24] µM |  |  | increase extracellular ATP levels | did not had any effects |  | 
CCN(CCO)CCCC(C)Nc1ccnc2cc(Cl)ccc12 (stereo not drawn) [Hydroxychloroquine (sulphate), Hydroxychloroquine] |  | 12.5 | no effects |  |  |  |  | increase extracellular ATP levels |  |  | induced an elevation of Cx43 protein expression
CC(C)c1nc(CN(C)C(=O)N[C@H](C(=O)N[C@@H](Cc2ccccc2)C[C@H](O)[C@H](Cc2ccccc2)NC(=O)OCc2cncs2)C(C)C)cs1 [Ritonavir] | not significantly different from the DF control | 16 | no effects |  | 1.17 [31] µM |  |  |  |  |  | 
NC(=O)c1ncn([C@@H]2O[C@H](CO)[C@@H](O)[C@H]2O)n1 [Ribavirin] | not significantly different from the DF control | 10 | no effects |  |  |  |  |  |  |  | 
